According to ChEMBL document CHEMBL1201862, “PubChem BioAssay data set” (2004):
Active and inactive are the calls of the source.

Legend:
Format in all cases: functional
[1] = molecular target: T1, Sentrin-specific protease 6 (Homo sapiens, UniProt Q9GZR1);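 also: Luminescence-based dose-response confirmatory assay of SENP6 inhibition, following up an ultra-high-throughput screen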
T1 sequence (Q9GZR1 whole entry): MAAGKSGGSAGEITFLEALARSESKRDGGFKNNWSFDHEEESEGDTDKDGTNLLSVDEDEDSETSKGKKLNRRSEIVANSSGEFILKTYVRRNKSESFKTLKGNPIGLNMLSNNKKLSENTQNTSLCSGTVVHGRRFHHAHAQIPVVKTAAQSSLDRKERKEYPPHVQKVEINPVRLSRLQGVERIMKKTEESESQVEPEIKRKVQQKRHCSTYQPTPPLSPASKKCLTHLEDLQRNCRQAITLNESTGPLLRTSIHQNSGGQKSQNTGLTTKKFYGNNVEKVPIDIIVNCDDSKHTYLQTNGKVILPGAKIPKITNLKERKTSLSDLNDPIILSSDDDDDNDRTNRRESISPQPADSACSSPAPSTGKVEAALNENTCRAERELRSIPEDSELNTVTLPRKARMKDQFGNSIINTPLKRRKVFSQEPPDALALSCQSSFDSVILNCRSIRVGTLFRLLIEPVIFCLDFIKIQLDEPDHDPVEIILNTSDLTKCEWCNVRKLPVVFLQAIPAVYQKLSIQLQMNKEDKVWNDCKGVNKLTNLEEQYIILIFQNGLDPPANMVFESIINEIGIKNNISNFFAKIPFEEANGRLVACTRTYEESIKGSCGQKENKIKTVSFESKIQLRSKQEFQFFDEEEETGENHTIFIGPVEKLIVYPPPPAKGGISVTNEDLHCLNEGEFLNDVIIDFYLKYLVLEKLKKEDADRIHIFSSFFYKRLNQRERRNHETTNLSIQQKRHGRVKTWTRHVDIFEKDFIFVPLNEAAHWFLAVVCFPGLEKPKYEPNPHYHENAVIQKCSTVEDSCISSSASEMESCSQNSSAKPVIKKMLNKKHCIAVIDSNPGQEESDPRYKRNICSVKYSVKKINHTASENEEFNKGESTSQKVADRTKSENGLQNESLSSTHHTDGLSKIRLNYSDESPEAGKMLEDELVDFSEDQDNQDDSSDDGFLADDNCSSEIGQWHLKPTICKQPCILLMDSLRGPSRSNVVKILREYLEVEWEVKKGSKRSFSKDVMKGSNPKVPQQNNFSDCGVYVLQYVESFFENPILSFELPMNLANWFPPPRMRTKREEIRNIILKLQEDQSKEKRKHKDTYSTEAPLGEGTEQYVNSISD

[2] = molecular target: T2, Caspase-3 (Homo sapiens, UniProt P42574);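 also: Dose-response selectivity test against caspase-3 for candidate inhibitors of sentrin-specific proteases (SENPs)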
T2 sequence (P42574 whole entry): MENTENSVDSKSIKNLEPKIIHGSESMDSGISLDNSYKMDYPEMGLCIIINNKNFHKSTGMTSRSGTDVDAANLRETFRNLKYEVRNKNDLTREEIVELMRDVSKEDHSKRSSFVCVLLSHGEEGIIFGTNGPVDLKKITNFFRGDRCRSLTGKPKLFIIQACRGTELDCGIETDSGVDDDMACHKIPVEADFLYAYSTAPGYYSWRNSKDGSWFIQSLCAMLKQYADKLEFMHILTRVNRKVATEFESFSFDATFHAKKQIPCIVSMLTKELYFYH

[3] = molecular target: T3, Protein RecA (Mycobacterium tuberculosis, UniProt P9WHJ3); assay: Fluorescence Cell-Free Homogeneous Dose Retest to Identify Inhibitors of RecA-Intein Splicing Activity. [Related pubchem assays (depositor defined):AID2097, AID2223, AID489010, AID492950]
T3 sequence (P9WHJ3 whole entry): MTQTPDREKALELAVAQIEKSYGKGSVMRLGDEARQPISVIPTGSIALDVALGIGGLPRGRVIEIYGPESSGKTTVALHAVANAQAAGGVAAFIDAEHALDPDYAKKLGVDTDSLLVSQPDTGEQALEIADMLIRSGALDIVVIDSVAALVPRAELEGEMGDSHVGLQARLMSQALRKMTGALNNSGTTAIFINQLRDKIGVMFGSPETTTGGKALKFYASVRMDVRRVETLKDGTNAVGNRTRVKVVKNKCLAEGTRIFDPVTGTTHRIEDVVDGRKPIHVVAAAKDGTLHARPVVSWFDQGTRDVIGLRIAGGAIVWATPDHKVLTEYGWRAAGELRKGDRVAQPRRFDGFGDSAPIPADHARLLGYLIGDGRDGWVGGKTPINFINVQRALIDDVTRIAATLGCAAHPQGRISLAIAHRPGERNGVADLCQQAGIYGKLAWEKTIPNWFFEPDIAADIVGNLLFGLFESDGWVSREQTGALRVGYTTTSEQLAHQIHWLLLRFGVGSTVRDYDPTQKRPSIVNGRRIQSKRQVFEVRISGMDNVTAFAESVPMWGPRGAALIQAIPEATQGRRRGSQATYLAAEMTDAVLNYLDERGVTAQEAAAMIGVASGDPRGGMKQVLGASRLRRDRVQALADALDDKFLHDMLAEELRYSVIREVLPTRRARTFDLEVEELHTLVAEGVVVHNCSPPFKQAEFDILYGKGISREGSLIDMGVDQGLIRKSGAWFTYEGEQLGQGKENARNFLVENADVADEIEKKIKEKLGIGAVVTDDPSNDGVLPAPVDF

[4] = molecular target: T4, Leucine aminopeptidase (Plasmodium falciparum 3D7, UniProt Q8IL11); assay: P. falciparum M17LAP inhibitors, primary screen, biochemical, fluorogenic H-Leu-NHMec substrate, 1536-well (AID 1619)
T4 sequence (Q8IL11 whole entry): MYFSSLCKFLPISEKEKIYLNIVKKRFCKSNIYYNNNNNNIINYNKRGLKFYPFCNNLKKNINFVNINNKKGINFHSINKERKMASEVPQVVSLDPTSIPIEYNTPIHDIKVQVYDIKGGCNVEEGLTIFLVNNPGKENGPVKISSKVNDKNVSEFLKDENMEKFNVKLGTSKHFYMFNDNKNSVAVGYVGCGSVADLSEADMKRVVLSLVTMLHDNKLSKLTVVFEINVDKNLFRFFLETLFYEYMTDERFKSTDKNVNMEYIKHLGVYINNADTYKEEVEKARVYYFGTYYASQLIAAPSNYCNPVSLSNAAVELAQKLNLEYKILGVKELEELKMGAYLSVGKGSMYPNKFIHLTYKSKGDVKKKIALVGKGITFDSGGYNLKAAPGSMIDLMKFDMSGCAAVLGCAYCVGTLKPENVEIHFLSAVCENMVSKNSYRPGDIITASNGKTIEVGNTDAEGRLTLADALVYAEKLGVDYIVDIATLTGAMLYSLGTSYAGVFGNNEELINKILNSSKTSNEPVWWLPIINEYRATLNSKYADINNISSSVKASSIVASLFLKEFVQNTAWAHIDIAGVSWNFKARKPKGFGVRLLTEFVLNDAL

SMILES | IC50 [1] | IC50 [2] | EC50 [3] | IC50 [4]
c1ccc2c(Nc3nnc(-c4ccncc4)s3)cccc2c1 | 10.1 µM (active) | 18.5 µM (active) |  | 
COc1cc(C(=O)c2nccc3cc(OC)c(OC)cc23)c([N+](=O)[O-])cc1OC | 0.936 µM (active) | 31.9 µM (active) | 0.16 µM (active) | 
N#Cc1c(O)nc(SCC(=O)N2c3ccccc3Sc3ccccc32)nc1-c1ccccc1 |  |  | 9.18 µM (active) | 10.2 µM (active)
N=C1S/C(=C\c2ccc(-c3ccccc3C(=O)O)o2)C(=O)N1c1ccc2c(c1)OCO2 |  |  |  | 29 µM (active)
